Common to all, as to assay type: cell-based
The subject of assay [1] is NCI-H524 (ATCC) human small cell lung cancer cells. Conditions: 2 h. As for the experimental part:
SMDCs of the present invention were assessed in an in vitro assay evaluating the inhibition of cell proliferation. NCI-H524 (ATCC) human small cell lung cancer cells were plated in 96-well V-bottom plates (Costar) at a concentration of 5,000 cells/well. 24 h later, the cells were treated for 2 h with a SMDC. SMDC starting dose was 1 uM and two-fold serial dilutions were done for a total of 11 points. After 2 h of treatment, cells were spun down, and the drug-containing media was removed, and fresh complete media was added and used to resuspend the cells, which were spun again. After removal of the media, the cells were resuspended in complete medium and incubated for an additional 70 h. Cell proliferation was assessed using the CellTiter Glo Assay according to the standard protocol (Promega). Luminescence was measured using a TECAN plate reader. Percent proliferation inhibition was calculated using the following formula: % inhibition=(Luminescence Control−Luminescence Treatment)/Luminescence Control*100. IC50 curves were generated using the nonlinear regression analysis (four-parameter) with GraphPad Prism 9.

Assay [2] deals with T1, human somatostatin receptor subtype 2 (Homo sapiens, UniProt P30874).
T1 construct: expressed in transfected cells
The assay is described as follows: Functional cAMP assay for SSTR2 agonists (HTRF) in CHO-K1 cells. The following applies: CHO-K1 cells stably expressing human SST2, 20 min. An excerpt:
General overview: All five SSTR subtypes are Gi coupled G-protein coupled receptors (GPCRs) that lead to decreases in intracellular cyclic AMP (cAMP) when activated by an agonist. Therefore, measurement of intracellular cAMP levels can be used to assess whether compounds of the invention are agonists of SSTR subtypes (John Kelly, Troy Stevens, W. Joseph Thompson, and Roland Seifert, Current Protocols in Pharmacology, 2005, 2.2.1-2.2). One example of an intracellular cAMP assay is described below.
Functional Assay for SSTR2 Agonists
Four days prior to the assay, 2,000 Chinese hamster ovary cells (CHO-K1, ATCC #CCL-61) stably expressing the human somatostatin receptor subtype 2 are plated in each well of a 96-well tissue culture-treated plate in Ham's F12 growth media (ThermoFisher #10-080-CM) supplemented with 10% donor bovine serum (Gemini Bio-Products #100-506), 100 U/mL penicillin; 100 ug/mL streptomycin; 2 mM L-glutamine (Gemini Bio-Products #400-110) and 0.2 mg/mL hygromycin B (GoldBio #31282-04-9). The cells are cultured at 37° C., 5% CO2 and 95% humidity. cAMP is measured with HTRF dynamic cAMP assay (Cisbio, #62AM5PEJ) per manufacturer's instructions. On the day of the assay, the media is aspirated and the cells are treated with 50 μL of stimulation buffer supplemented with 10.2 mM 3-Isobutyl-1-methylxanthine (IBMX, Millipore Sigma #15879) and 1.6 μM NKH477 (Tocris #1603), plus various dilutions of SMDCs of the present invention. The cells are incubated for 20 minutes at 37° C. (the final concentration of the compounds of the invention are typically 0-10,000 nM). The cells are treated with 50 μL of lysis buffer (HRTF cAMP kit, Cisbio) and incubated at room temperature for 30 minutes with rotary shaking at 600 rpm, and then diluted with 150 μL of stimulation buffer and shaken for an additional five minutes at 300 rpm. The lysate is transferred to 384-well plates and incubated for 1-24 hours at room temperature, and cAMP accumulation is detected by d2-labeled cAMP and Anti-cAMP-Cryptate. The time-resolved fluorescent signal is read using a m1000 Pro (Tecan) or CLARIOStar (BMG Labtech) microplate reader, where the samples are excited with light at 340 nm and emission light is measured at 620 nm and 665 nm. The data is expressed as a calculation of the fluorescence ratio (665 nm/620 nm). The intracellular cAMP concentrations are calculated by regression to a standard curve and are plotted vs. the concentration of the compounds of the invention. The EC50 of the compounds are calculated using standard methods. All data manipulations are in GraphPad Prism v9 (GraphPad, San Diego, CA).

The target in a further assay is T2, SST2 (Homo sapiens, UniProt P30874).
T2 construct: host or cells: PathHunter CHO-K1 SST2 cells
The experiment in a line: PathHunter CHO-K1 SST2 internalization assay. The following applies: PathHunter CHO-K1 SST2, 90 min. As for the experimental part:
SMDCs of the present invention were assessed in vitro using the human PathHunter CHO-K1 SST2 β-arrestin2 and PathHunter CHO-K1 SST2 Internalization Assays from DiscoverX. The CHO-K cells were seeded in 20 μLs of cell culture medium in a white-walled 384 well tissue culture-compatible plate at a density of 2500 cells/well. After a 48-hour incubation, cells were treated with 5 μLs of a 1:3 serially diluted SST2 SMDC prepared at 5× concentration with a final top compound concentration of 10 uM for 90 min at 37 C and in 5% CO2. 11 dilutions were tested as well as one treatment that was compound free. After incubation, the media containing treatments were discarded and 20 μL of a working solution of Beta-Glo from Promega Beta-Glo Assay System was added to each well. The plate was then incubated for 60 min at room temperature in the dark. Luminescence was measured using a Tecan plate reader. IC50 curves were generated using the nonlinear regression analysis (four-parameters) with GraphPad Prism 9. Results were the average of duplicates and are corrected for background.

Where two headings read alike, the source gives them in different places. Starred links: 1 amine or outer side, 2 acyl side, 3 side chain; linkers in the order of their positions; H or OH if unused. Non-standard residues stand in square brackets, D forms with d. Residues, ends and D or L forms follow the SMILES beside them. *: point of attachment. X1 = Cc1cc(F)cc(-c2cnc(NCCNC(=O)CCOCCC(=O)*)c(-c3nc4ccc(Cl)cc4[nH]3)c2N2CCC(N)CC2)c1; X5 = Cc1cc(F)cc(-c2cnc(NCCNC(=O)CCOCCC(=O)*)c(-c3nc4cc(Cl)ccc4[nH]3)c2N2CCC(N)CC2)c1; Dolaproine = CO[C@@H]([C@@H]1CCCN1)[C@@H](C)C(=O)O; Dil = CC[C@H](C)[C@H](NC)[C@@H](CC(=O)O)OC; PABC = O=C(OCc1ccc(N[*:1])cc1)[*:2]; X2 = C[C@@H](N*)[C@@H](O)c1ccccc1; Cya = N[C@@H](CS(=O)(=O)O)C(=O)O; Cit = NC(=O)NCCC[C@H](N)C(=O)O; NMeV = CN[C@H](C(=O)O)C(C)C

T1 sequence (P30874 whole entry): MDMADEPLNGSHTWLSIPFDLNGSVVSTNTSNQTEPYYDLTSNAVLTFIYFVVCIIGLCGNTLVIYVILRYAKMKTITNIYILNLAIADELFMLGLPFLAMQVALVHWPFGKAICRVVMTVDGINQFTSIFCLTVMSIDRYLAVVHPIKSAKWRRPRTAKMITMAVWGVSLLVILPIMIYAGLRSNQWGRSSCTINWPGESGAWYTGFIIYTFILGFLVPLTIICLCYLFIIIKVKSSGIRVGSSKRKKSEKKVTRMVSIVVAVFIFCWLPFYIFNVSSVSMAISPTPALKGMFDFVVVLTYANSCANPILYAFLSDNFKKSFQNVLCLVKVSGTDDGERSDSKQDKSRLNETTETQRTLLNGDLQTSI
T2 sequence (P30874 whole entry): as above

Consider `CCC(C)C(C(CC(=O)N1CCCC1C(OC)C(C)C(=O)NC(C)C(O)c1ccccc1)OC)N(C)C(=O)C(NC(=O)C(C(C)C)N(C)C(=O)OCc1ccc(NC(=O)[C@H](CCCNC(N)=O)NC(=O)[C@@H](NC(=O)CCOCCOCCC(=O)NCCNc2ncc(-c3cc(C)cc(F)c3)c(N3CCC(N)CC3)c2-c2nc3ccc(Cl)cc3[nH]2)C(C)C)cc1)C(C)C` (stereo in doubt) [Compound 24], for which the EC50 in assay [1] was 13.4 nM; in assay [2] (read-out: hSST2 cAMP Avg EC50), 0.2 nM; at SST2 (read-out: Internalization EC50), 12 nM.
Consider `CCC(C)C(C(CC(=O)N1CCCC1C(OC)C(C)C(=O)NC(C)C(O)c1ccccc1)OC)N(C)C(=O)C(NC(=O)C(C(C)C)N(C)C(=O)OCc1ccc(NC(=O)[C@H](CCCNC(N)=O)NC(=O)[C@@H](NC(=O)CCOCCOCCOCCOCCC(=O)NCCNc2ncc(-c3cc(C)cc(F)c3)c(N3CCC(N)CC3)c2-c2nc3ccc(Cl)cc3[nH]2)C(C)C)cc1)C(C)C` (stereo in doubt) [Compound 25], for which the EC50 is 25 nM in assay [1], 0.34 nM in assay [2] (read-out: hSST2 cAMP Avg EC50) and 27 nM at SST2 (read-out: Internalization EC50).
The matching figures for `CCC(C)C(C(CC(=O)N1CCCC1C(OC)C(C)C(=O)NC(C)C(O)c1ccccc1)OC)N(C)C(=O)C(NC(=O)C(C(C)C)N(C)C(=O)OCc1ccc(NC(=O)[C@H](CCCNC(N)=O)NC(=O)[C@@H](NC(=O)CCOCCC(=O)NCCNc2ncc(-c3cc(C)cc(F)c3)c(N3CCC(N)CC3)c2-c2nc3ccc(Cl)cc3[nH]2)C(C)C)cc1)C(C)C` (stereo in doubt) [Compound 26]: 10.6 nM, 0.3 nM and 11.6 nM.
On to `CCC(C)C(C(CC(=O)N1CCCC1C(OC)C(C)C(=O)NC(C)C(O)c1ccccc1)OC)N(C)C(=O)C(NC(=O)C(C(C)C)N(C)C(=O)OCc1ccc(NC(=O)[C@H](CCCNC(N)=O)NC(=O)[C@@H](NC(=O)CCOCCOCCOCCOCCOCCOCCOCCOCCC(=O)NCCNc2ncc(-c3cc(C)cc(F)c3)c(N3CCC(N)CC3)c2-c2nc3ccc(Cl)cc3[nH]2)C(C)C)cc1)C(C)C` (stereo in doubt) [Compound 27], for which the EC50 was 65.5 nM in assay [1], 0.2 nM in assay [2] (read-out: hSST2 cAMP Avg EC50) and 27.8 nM at SST2 (read-out: Internalization EC50).
As for `CCC(C)C(C(CC(=O)N1CCCC1C(OC)C(C)C(=O)NC(C)C(O)c1ccccc1)OC)N(C)C(=O)C(NC(=O)C(C(C)C)N(C)C(=O)OCc1ccc(NC(=O)[C@H](CCCNC(N)=O)NC(=O)[C@@H](NC(=O)CCOCCC(=O)NCCNc2ncc(-c3cc(C)cc(F)c3)c(N3CCC(N)CC3)c2-c2nc3ccc(C(N)=O)cc3[nH]2)C(C)C)cc1)C(C)C` (stereo in doubt) [Compound 28], the concentration for a half-maximal effect (EC50) in assay [1] worked out at 1290 nM; in assay [2] (read-out: hSST2 cAMP Avg EC50) it was 2 nM; on SST2 (read-out: Internalization EC50) it was 704 nM.
Turning to `Cc1cc(F)cc(-c2cnc(NCCNC(=O)CCOCCOCCOCCOCCNC(=O)CCCCC[N+]3=C(/C=C/C=C/C=C4/N(C)c5ccccc5C4(C)C)C(C)(C)c4ccccc43)c(-c3nc4ccc(Cl)cc4[nH]3)c2N2CCC(N)CC2)c1` [Compound 12, 1-[5-({14-[(2-{[4-(4-aminopiperidin-1-yl)-3-(6-chloro-1H-1,3-benzodiazol-2-yl)-5-(3-fluoro-5-methylphenyl)pyridin-2-yl]amino}ethyl)carbamoyl]-3,6,9,12-tetraoxatetradecan-1-yl}carbamoyl)pentyl]-3,3-dimethyl-2-[(1E,3E)-5-[(2E)-1,3,3-trimethyl-2,3-dihydro-1H-indol-2-ylidene]penta-1,3-dien-1-yl]-3H-indol-1-ium], the EC50 in assay [2] (read-out: hSST2 cAMP Avg EC50) amounted to 0.39 nM; at SST2 (read-out: Internalization EC50), 2.9 nM.
With `CC[C@H](C)[C@@H]([C@@H](CC(=O)N1CCC[C@H]1[C@H](OC)[C@@H](C)C(=O)N[C@H](C)[C@@H](O)c1ccccc1)OC)N(C)C(=O)[C@@H](NC(=O)[C@H](C(C)C)N(C)C(=O)OCc1ccc(NC(=O)[C@H](C)NC(=O)[C@@H](NC(=O)[C@H](CCC(=O)O)NC(=O)CCOCCC(=O)NCCNc2ncc(-c3cc(C)cc(F)c3)c(N3CCC(N)CC3)c2-c2nc3cc(Cl)ccc3[nH]2)C(C)C)cc1)C(C)C` [Compound 32] (X5-EVA[PABC][NMeV]V[Dil][Dolaproine]-X2), in assay [1], the midpoint of the response, the EC50, lay at 155 nM.
In the case of `CC[C@H](C)[C@@H]([C@@H](CC(=O)N1CCC[C@H]1[C@H](OC)[C@@H](C)C(=O)N[C@H](C)[C@@H](O)c1ccccc1)OC)N(C)C(=O)[C@@H](NC(=O)[C@H](C(C)C)N(C)C(=O)OCc1ccc(NC(=O)[C@H](CCCNC(N)=O)NC(=O)[C@@H](NC(=O)[C@H](CS(=O)(=O)O)NC(=O)CCOCCOCCOCCOCCC(=O)NCCNc2ncc(-c3cc(C)cc(F)c3)c(N3CCC(N)CC3)c2-c2nc3cc(Cl)ccc3[nH]2)C(C)C)cc1)C(C)C` [Compound 81], in assay [1], the EC50 was found to be 32 nM.
Consider `CC[C@H](C)[C@@H]([C@@H](CC(=O)N1CCC[C@H]1[C@H](OC)[C@@H](C)C(=O)N[C@H](C)[C@@H](O)c1ccccc1)OC)N(C)C(=O)[C@@H](NC(=O)[C@H](C(C)C)N(C)C(=O)OCc1ccc(NC(=O)[C@H](CCCNC(N)=O)NC(=O)[C@@H](NC(=O)[C@H](CS(=O)(=O)O)NC(=O)[C@H](CCC(=O)O)NC(=O)CCOCCC(=O)NCCNc2ncc(-c3cc(C)cc(F)c3)c(N3CCC(N)CC3)c2-c2nc3ccc(Cl)cc3[nH]2)C(C)C)cc1)C(C)C` [Compound 115] (X1-E[Cya]V[Cit][PABC][NMeV]V[Dil][Dolaproine]-X2), for which the EC50 in assay [2] (read-out: hSST2 cAMP Avg EC50) was found to be 0.08 nM; at SST2 (read-out: Internalization EC50) it was 3.6 nM.
Regarding `CC[C@@]1(O)C(=O)OCc2c1cc1n(c2=O)Cc2c-1nc1cc(F)c(C)c3c1c2[C@@H](NC(=O)OCc1ccc(NC(=O)[C@H](CCCNC(N)=O)NC(=O)[C@@H](NC(=O)CCOCCOCCOCCOCCC(=O)NCCNc2ncc(-c4cc(C)cc(F)c4)c(N4CCC(N)CC4)c2-c2nc4ccc(Cl)cc4[nH]2)C(C)C)c(O[C@@H]2O[C@H](C(=O)O)[C@@H](O)[C@H](O)[C@H]2O)c1)CC3` [Compound 127], the EC50 in assay [2] (hSST2 cAMP Avg EC50 (nM)) turned out to be 0.26 nM; at SST2 (Internalization EC50 (nM)), 13 nM.
Turning to `CC[C@H](C)[C@@H]([C@@H](CC(=O)N1CCC[C@H]1[C@H](OC)[C@@H](C)C(=O)N[C@H](C)[C@@H](O)c1ccccc1)OC)N(C)C(=O)[C@@H](NC(=O)[C@H](C(C)C)N(C)C(=O)OCc1ccc(NC(=O)[C@H](CCCNC(N)=O)NC(=O)[C@@H](NC(=O)[C@H](CS(=O)(=O)O)NC(=O)CCOCCOCCOCCOCCC(=O)NCCNc2ncc(-c3cc(C)cc(F)c3)c(N3CCC(N)CC3)c2-c2nc3ccc(Cl)cc3[nH]2)C(C)C)cc1C(=O)NCCN)C(C)C` [Compound 157], the EC50 turned out to be 0.17 nM in assay [2] (read-out: hSST2 cAMP Avg EC50) and 12 nM at SST2 (read-out: Internalization EC50).

The values above are taken from patent US12134610B2, “Somatostatin subtype-2 receptor (SST2R) targeted therapeutics and uses thereof” (priority 2022, dated 2024).
